Test results: patent publication US9156796B2, “Benzoimidazole-carboxylic acid amide derivatives as APJ receptor modulators” (SANOFI, priority 2013, dated 2015)

biological target: T1, human apelin receptor (Homo sapiens, UniProt P35414); assay: Determination of agonism on the human apelin receptor by a calcium fluorescence assay (FLIPR); assay type: cell-based; details: HEK293 cells stably transfected with human apelin receptor and Giaq protein, Fluo-4 calcium fluorescence, read-out: EC50 (APJ agonism)
T1 construct: expressed in transfected cells
T1 sequence (P35414 1-380): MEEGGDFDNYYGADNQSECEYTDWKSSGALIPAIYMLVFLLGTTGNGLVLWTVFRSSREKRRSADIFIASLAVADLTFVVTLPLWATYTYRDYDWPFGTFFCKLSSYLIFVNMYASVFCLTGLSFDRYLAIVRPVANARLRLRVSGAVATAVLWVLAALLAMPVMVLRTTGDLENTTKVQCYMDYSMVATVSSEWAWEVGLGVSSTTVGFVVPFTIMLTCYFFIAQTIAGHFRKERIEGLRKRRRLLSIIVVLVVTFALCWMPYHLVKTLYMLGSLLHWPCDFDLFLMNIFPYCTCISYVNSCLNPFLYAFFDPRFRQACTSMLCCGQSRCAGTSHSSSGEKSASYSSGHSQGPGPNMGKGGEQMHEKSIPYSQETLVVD
Outline: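 Agonist EC50s come from peak intracellular calcium transients recorded by FLIPR Tetra, scaled to the 1 μM apelin-13 maximum per plate. Test system: HEK293 stably transfected with human apelin receptor plus Giaq, Fluo-4-loaded (4 μM, 1 h, 37 °C, pH 7.4 buffer with probenecid); ≥7 concentrations, triplicates.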

In order of rising EC50:
1. CC(C)C[C@@H](CC(=O)O)NC(=O)c1ccc2c(c1)nc(Cc1cccs1)n2C1CCCCC1C (single isomer, unassigned) [Example 436]  24 nM
2. CC(C)C[C@H](NC(=O)c1ccc2c(c1)nc(Cc1ccco1)n2C1CCCCC1C)C(=O)O (single isomer, unassigned) [Example 416]  25 nM
3. CC(C)C[C@@H](CC(=O)O)NC(=O)c1ccc2c(c1)nc(Cc1ccco1)n2C1CCCCC1C (stereo partly drawn) [Example 99, (S)-3-{[2-Furan-2-ylmethyl-1-(2-methyl-cyclohexyl)-1H-benzoimidazole-5-carbonyl]-amino}-5-methyl-hexanoic acid]  46 nM
4. C[C@@H]1CCCC[C@H]1n1c(Cc2cncs2)nc2cc(C(=O)NC(CC(=O)O)CC3CCCCC3)ccc21 (stereo partly drawn) [Example 65, 4-Cyclohexyl-3-{[1-((1R,2R)-2-methyl-cyclohexyl)-2-thiazol-5-ylmethyl-1H-benzoimidazole-5-carbonyl]-amino}-butyric acid]  56 nM
5. CCC(CC)n1c(Cc2cccs2)nc2cc(C(=O)N[C@@H](CC(C)C)C(=O)NCc3nnn[nH]3)ccc21 [Example 399, 1-(1-Ethyl-propyl)-2-thiophen-2-ylmethyl-1H-benzoimidazole-5-carboxylic acid {(S)-3-methyl-1-[(1H-tetrazol-5-ylmethyl)-carbamoyl]-butyl}-amide]  99 nM
6. CCC(CC)n1c(Cc2cccs2)nc2cc(C(=O)N[C@@H](CC(C)C)C(=O)N[C@H]3C[C@H]4CC[C@@H](C3)N4C)ccc21 [Example 276, 1-(1-Ethyl-propyl)-2-thiophen-2-ylmethyl-1H-benzoimidazole-5-carboxylic acid [(S)-3-methyl-1-((3R)-8-methyl-8-aza-bicyclo[3.2.1]oct-3-ylcarbamoyl)-butyl]-amide]  105 nM
7. CCC(CC)n1c(Cc2cccs2)nc2cc(C(=O)N[C@@H](CC(C)C)C(=O)NC3CCN(CC)CC3)ccc21 [Example 340, 1-(1-Ethyl-propyl)-2-thiophen-2-ylmethyl-1H-benzoimidazole-5-carboxylic acid [(S)-1-(1-ethyl-piperidin-4-ylcarbamoyl)-3-methyl-butyl]-amide]  185 nM
8. C[C@@H]1CCCC[C@H]1n1c(Cc2cccs2)nc2cc(C(=O)NC(CC(=O)O)CC3CCCCC3)ccc21 (stereo partly drawn) [Example 51, 4-Cyclohexyl-3-{[1-((1R,2R)-2-methyl-cyclohexyl)-2-thiophen-2-ylmethyl-1H-benzoimidazole-5-carbonyl]-amino}-butyric acid]  211 nM
9. CCC(CC)n1c(Cc2ccoc2)nc2cc(C(=O)N[C@H](CC(=O)O)CC(C)C)ccc21 [Example 154, (S)-3-{[1-(1-Ethyl-propyl)-2-furan-3-ylmethyl-1H-benzoimidazole-5-carbonyl]-amino}-5-methyl-hexanoic acid]  270 nM
10. CCC(CC)n1c(Cc2cccs2)nc2cc(C(=O)N[C@@H](CC(C)C)C(=O)NCCN(C)C)ccc21 [Example 267, 1-(1-Ethyl-propyl)-2-thiophen-2-ylmethyl-1H-benzoimidazole-5-carboxylic acid [(S)-1-(2-dimethylamino-ethylcarbamoyl)-3-methyl-butyl]-amide]  383 nM
11. CCC(CC)n1c(Cc2ccco2)nc2cc(C(=O)NC(C)(CC(C)C)C(=O)O)ccc21 (centres unmarked) [Example 13, 2-{[1-(1-Ethyl-propyl)-2-furan-2-ylmethyl-1H-benzoimidazole-5-carbonyl]-amino}-2,4-dimethyl-pentanoic acid]  535 nM
12. CC(C)C[C@H](NC(=O)c1ccc2c(c1)nc(Cc1ccco1)n2C1CCCCC1C)C(=O)O (single isomer, unassigned) [Example 417]  715 nM
13. CCC(CC)n1c(Cc2cccs2)nc2cc(C(=O)N[C@@H](CC(C)C)C(=O)NC(C)CN(C)C)ccc21 (stereo partly drawn) [Example 243, 1-(1-Ethyl-propyl)-2-thiophen-2-ylmethyl-1H-benzoimidazole-5-carboxylic acid [(S)-1-(2-dimethylamino-1-methyl-ethylcarbamoyl)-3-methyl-butyl]-amide]  771 nM
14. CCC(CC)n1c(Cc2cccs2)nc2cc(C(=O)N[C@@H](CC(C)C)C(=O)NCCCN3CCN(Cc4ccccc4)CC3)ccc21 [Example 341, 1-(1-Ethyl-propyl)-2-thiophen-2-ylmethyl-1H-benzoimidazole-5-carboxylic acid {(S)-1-[3-(4-benzyl-piperazin-1-yl)-propylcarbamoyl]-3-methyl-butyl}-amide]  918 nM
15. CC(C)C[C@H](NC(=O)c1ccc2c(c1)nc(Cc1cccs1)n2C1CCCCC1C)C(=O)O (single isomer, unassigned) [Example 413]  1020 nM
16. CCC(CC)n1c(Cc2cccs2)nc2cc(C(=O)N[C@@H](CC(C)C)C(=O)NCC3CCCN(Cc4ccccc4)C3)ccc21 (stereo partly drawn) [Example 286, 1-(1-Ethyl-propyl)-2-thiophen-2-ylmethyl-1H-benzoimidazole-5-carboxylic acid {(S)-1-[(1-benzyl-piperidin-3-ylmethyl)-carbamoyl]-3-methyl-butyl}-amide]  1100 nM
17. CCC(CC)n1c(CC2CCCC2)nc2cc(C(=O)N[C@@H](CC3CCCCC3)C(=O)O)ccc21 [Example 3, (S)-3-Cyclohexyl-2-{[2-cyclopentylmethyl-1-(1-ethyl-propyl)-1H-benzoimidazole-5-carbonyl]-amino}-propionic acid]  1200 nM
18. CCC(CC)n1c(Cc2cccs2)nc2cc(C(=O)N[C@@H](CC(C)C)C(=O)NC(C)CCN3CCOCC3)ccc21 (stereo partly drawn) [Example 306, 1-(1-Ethyl-propyl)-2-thiophen-2-ylmethyl-1H-benzoimidazole-5-carboxylic acid [(S)-3-methyl-1-(1-methyl-3-morpholin-4-yl-propylcarbamoyl)-butyl]-amide]  1260 nM
19. CCC(CC)n1c(Cc2cccs2)nc2cc(C(=O)N[C@@H](CC(C)C)C(=O)NCCSC)ccc21 [Example 258, 1-(1-Ethyl-propyl)-2-thiophen-2-ylmethyl-1H-benzoimidazole-5-carboxylic acid [(S)-3-methyl-1-(2-methylsulfanyl-ethylcarbamoyl)-butyl]-amide]  1330 nM
20. CCC(CC)n1c(Cc2cccs2)nc2cc(C(=O)NC(C)(CC(C)C)C(=O)O)ccc21 (single isomer, unassigned) [Example 441]  1520 nM
21. CCC(CC)n1c(CC2CCCC2)nc2cc(C(=O)N[C@H](CC3CCCCC3)C(=O)O)ccc21 [Example 10, (R)-3-Cyclohexyl-2-[{2-cyclopentylmethyl-1-(1-ethyl-propyl)-1H-benzoimidazole-5-carbonyl]-amino}-propionic acid]  1700 nM
22. CC(C)C[C@H](NC(=O)c1ccc2c(c1)nc(Cc1cccs1)n2C1CCCCC1C)C(=O)N(C)C (stereo partly drawn) [Example 216, 1-(2-Methyl-cyclohexyl)-2-thiophen-2-ylmethyl-1H-benzoimidazole-5-carboxylic acid ((S)-1-dimethyl-carbamoyl-3-methyl-butyl)-amide]  1730 nM
23. CCC(C)Cn1c(CC2CCCCC2)nc2cc(C(=O)N[C@@H](CC3CCCCC3)C(=O)O)ccc21 (stereo partly drawn) [Example 133, (S)-3-Cyclohexyl-2-{[2-cyclohexylmethyl-1-(2-methyl-butyl)-1H-benzoimidazole-5-carbonyl]-amino}-propionic acid]  2350 nM
24. CCC(CC)n1c(Cc2cccs2)nc2cc(C(=O)N[C@@H](CC(C)C)C(=O)NC3CCN(Cc4cccc(F)c4)CC3)ccc21 [Example 301, 1-(1-Ethyl-propyl)-2-thiophen-2-ylmethyl-1H-benzoimidazole-5-carboxylic acid {(S)-1-[1-(3-fluoro-benzyl)-piperidin-4-ylcarbamoyl]-3-methyl-butyl}-amide]  2460 nM
25. CCC(CC)n1c(Cc2cccs2)nc2cc(C(=O)N[C@@H](CC(C)C)C(=O)N[C@@H](C)COC)ccc21 [Example 370, 1-(1-Ethyl-propyl)-2-thiophen-2-ylmethyl-1H-benzoimidazole-5-carboxylic acid [(S)-1-((S)-2-methoxy-1-methyl-ethylcarbamoyl)-3-methyl-butyl]-amide]  2850 nM
26. CC(C)C[C@H](NC(=O)c1ccc2c(c1)nc(Cc1cccs1)n2C1CCCC1C)C(=O)O (single isomer, unassigned) [Example 431]  3470 nM
27. CCCCOC[C@H](CC(C)C)NC(=O)c1ccc2c(c1)nc(Cc1cccs1)n2C(CC)CC [Example 210, 1-(1-Ethyl-propyl)-2-thiophen-2-ylmethyl-1H-benzoimidazole-5-carboxylic acid ((S)-1-butoxymethyl-3-methyl-butyl)-amide]  10200 nM
28. CCC(CC)n1c(Cc2cccs2)nc2cc(C(=O)N[C@@H](CC(C)C)C(=O)N3CC[C@H](OCc4ccccc4)C3)ccc21 [Example 390, 1-(1-Ethyl-propyl)-2-thiophen-2-ylmethyl-1H-benzoimidazole-5-carboxylic acid [(S)-1-((S)-3-benzyloxy-pyrrolidine-1-carbonyl)-3-methyl-butyl]-amide]  10900 nM
29. CCC(CC)n1c(Cc2cccs2)nc2cc(C(=O)N[C@@H](CC(C)C)C(=O)N3CCCN(Cc4c(F)cccc4Cl)CC3)ccc21 [Example 274, 1-(1-Ethyl-propyl)-2-thiophen-2-ylmethyl-1H-benzoimidazole-5-carboxylic acid {(S)-1-[4-(2-chloro-6-fluoro-benzyl)-[1,4]diazepane-1-carbonyl]-3-methyl-butyl}-amide]  12600 nM
